Assay [1] addresses T1, full-length beta-Catenin (Uniprot ID P35222) (Homo sapiens, UniProt P35222).
T1 construct: 10 nM full-length beta-Catenin (Uniprot ID P35222)
T1 sequence (P35222 1-781): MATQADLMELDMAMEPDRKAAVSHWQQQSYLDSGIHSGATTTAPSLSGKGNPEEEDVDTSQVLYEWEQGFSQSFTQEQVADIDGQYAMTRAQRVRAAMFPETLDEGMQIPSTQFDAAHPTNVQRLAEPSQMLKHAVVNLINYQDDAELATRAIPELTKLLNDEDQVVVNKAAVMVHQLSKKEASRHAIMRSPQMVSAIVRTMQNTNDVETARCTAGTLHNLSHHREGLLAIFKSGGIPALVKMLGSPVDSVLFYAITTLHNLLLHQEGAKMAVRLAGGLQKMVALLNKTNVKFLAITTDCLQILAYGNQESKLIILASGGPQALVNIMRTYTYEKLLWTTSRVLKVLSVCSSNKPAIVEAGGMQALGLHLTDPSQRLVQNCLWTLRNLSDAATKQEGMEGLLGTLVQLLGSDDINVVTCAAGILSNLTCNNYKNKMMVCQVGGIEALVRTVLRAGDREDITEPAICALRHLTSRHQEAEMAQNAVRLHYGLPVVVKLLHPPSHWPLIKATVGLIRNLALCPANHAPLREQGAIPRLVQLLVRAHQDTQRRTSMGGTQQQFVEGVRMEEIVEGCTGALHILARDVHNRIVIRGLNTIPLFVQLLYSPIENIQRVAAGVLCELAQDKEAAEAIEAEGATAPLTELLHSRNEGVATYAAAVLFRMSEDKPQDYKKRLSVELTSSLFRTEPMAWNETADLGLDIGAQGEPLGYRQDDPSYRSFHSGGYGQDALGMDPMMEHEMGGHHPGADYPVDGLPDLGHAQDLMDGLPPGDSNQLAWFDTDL
Description: Fluorescence polarization IC50 (beta-catenin / 5FAM-TCF4 10-53 competition). It counts as binding.

In assay [2] the target is T2, beta-catenin/TCF4 engagement (Homo sapiens, UniProt P35222).
T2 construct: expressed in transfected cells; host or cells: HEK293
T2 sequence (P35222 1-781): T1 sequence (P35222 1-781)
Description: Nano-BRET target engagement assay (B-cat-Halo & TCF4-Luc in HEK293 cells). As to conditions: read-out: NanoBRET Abs IC50. The assay is classed as cell-based. A general note: Bioluminescence resonance energy transfer reports proximity on the nanometre scale.

The mark [3] stands for this setting: fluorescence polarization; read-out: beta-Catenin FP IC50.

Where two headings read alike, the source gives them in different places.

As for `CC(=O)N1CCC[C@]12CC=CCCCC1(CCCC=CCCCOC(=O)N3CC[C@@](C(=O)N[C@@H](Cc4ccsc4)C(=O)N[C@@H](Cc4csc5ccccc45)C(=O)N[C@@H](CCC(N)=O)C(N)=O)(C3)NC(=O)[C@H](CC(C)C)NC(=O)[C@H](Cc3ccccc3)NC(=O)[C@H](C)NC(=O)[C@H](C)NC(=O)[C@H](CCC(=O)OCCSSc3ccccc3)NC(=O)[C@H](CC(=O)O)NC1=O)NC(=O)[C@H](CC(C)(C)C)NC(=O)[C@H](CC(=O)O)NC2=O` (stereo partly drawn) [I-1958, Ac-PL3-Asp-Npg-B5-Asp-[EtSSPh]GluE-Ala-Ala-Phe-Leu-PyrS2-3Thi-BztA-Gln-NH2], the IC50 in assay [1] (read-out: beta-Catenin FP IC50; fluorescence polarization) was 1.54 µM; in assay [2] it was above 20 µM.

In the case of `CCCCCCSSCCOC(=O)C[C@@H]1NC(=O)[C@]2(CC=CCCCC3(CCCC=CCCCOC(=O)N4CC[C@@](C(=O)N[C@@H](Cc5ccsc5)C(=O)N[C@@H](Cc5csc6ccccc56)C(=O)N[C@@H](CCC(N)=O)C(N)=O)(C4)NC(=O)[C@H](CC(C)C)NC(=O)[C@H](Cc4ccccc4)NC(=O)[C@H](C)NC(=O)[C@H](C)NC(=O)[C@H](CC(=O)O)NC(=O)[C@H](CC(=O)O)NC3=O)NC(=O)[C@H](CC(C)(C)C)NC1=O)CCCN2C(C)=O` (stereo partly drawn) [I-1959, Ac-PL3-[EtSSHex]AspE-Npg-B5-Asp-Asp-Ala-Ala-Phe-Leu-PyrS2-3Thi-BztA-Gln-NH2], the values for the IC50 in assay [1] (setting [3]) and in assay [2] were 0.412 µM and above 20 µM, respectively.

Turning to `CCCCCCSSCCOC(=O)C[C@@H]1NC(=O)C2(CCCC=CCCCOC(=O)N3CC[C@@](C(=O)N[C@@H](Cc4ccsc4)C(=O)N[C@@H](Cc4csc5ccccc45)C(=O)N[C@@H](CCC(N)=O)C(N)=O)(C3)NC(=O)[C@H](CC(C)C)NC(=O)[C@H](Cc3ccccc3)NC(=O)[C@H](C)NC(=O)[C@H](C)NC(=O)[C@H](CC(=O)O)NC1=O)CCCC=CC[C@]1(CCCN1C(C)=O)C(=O)N[C@@H](CC(=O)O)C(=O)N[C@@H](CC(C)(C)C)C(=O)N2` (stereo partly drawn) [I-1961, Ac-PL3-Asp-Npg-B5-[EtSSHex]AspE-Asp-Ala-Ala-Phe-Leu-PyrS2-3Thi-BztA-Gln-NH2], the IC50 in assay [1] (setting [3]) was 2.1 µM; in assay [2], above 20 µM.

Take `CCCCCCSSCCOC(=O)C[C@@H]1NC(=O)[C@H](CC(=O)O)NC(=O)C2(CCCC=CCCCOC(=O)N3CC[C@@](C(=O)N[C@@H](Cc4ccsc4)C(=O)N[C@@H](Cc4csc5ccccc45)C(=O)N[C@@H](CCC(N)=O)C(N)=O)(C3)NC(=O)[C@H](CC(C)C)NC(=O)[C@H](Cc3ccccc3)NC(=O)[C@H](C)NC(=O)[C@H](C)NC1=O)CCCC=CC[C@]1(CCCN1C(C)=O)C(=O)N[C@@H](CC(=O)O)C(=O)N[C@@H](CC(C)(C)C)C(=O)N2` (stereo partly drawn) [I-1962, Ac-PL3-Asp-Npg-B5-Asp-[EtSSHex]AspE-Ala-Ala-Phe-Leu-PyrS2-3Thi-BztA-Gln-NH2]: the IC50 in assay [1] (setting [3]) was 1.6 µM; in assay [2], above 20 µM.

For `CCSSCCOC(=O)C[C@@H]1NC(=O)[C@]2(CC=CCCCC3(CCCC=CCCCOC(=O)N4CC[C@@](C(=O)N[C@@H](Cc5ccsc5)C(=O)N[C@@H](Cc5csc6ccccc56)C(=O)N[C@@H](CCC(N)=O)C(N)=O)(C4)NC(=O)[C@H](CC(C)C)NC(=O)[C@H](Cc4ccccc4)NC(=O)[C@H](C)NC(=O)[C@H](C)NC(=O)[C@H](CC(=O)O)NC(=O)[C@H](CC(=O)O)NC3=O)NC(=O)[C@H](CC(C)(C)C)NC1=O)CCCN2C(C)=O` (stereo partly drawn) [I-1963, Ac-PL3-[EtSSEt]AspE-Npg-B5-Asp-Asp-Ala-Ala-Phe-Leu-PyrS2-3Thi-BztA-Gln-NH2], the results for the IC50 in assay [1] (setting [3]) and in assay [2] were 0.326 µM and 25.6 µM, respectively.

Take `CCSSCCOC(=O)C[C@@H]1NC(=O)[C@H](CC(=O)O)NC(=O)C2(CCCC=CCCCOC(=O)N3CC[C@@](C(=O)N[C@@H](Cc4ccsc4)C(=O)N[C@@H](Cc4csc5ccccc45)C(=O)N[C@@H](CCC(N)=O)C(N)=O)(C3)NC(=O)[C@H](CC(C)C)NC(=O)[C@H](Cc3ccccc3)NC(=O)[C@H](C)NC(=O)[C@H](C)NC1=O)CCCC=CC[C@]1(CCCN1C(C)=O)C(=O)N[C@@H](CC(=O)O)C(=O)N[C@@H](CC(C)(C)C)C(=O)N2` (stereo partly drawn) [I-1965, Ac-PL3-Asp-Npg-B5-Asp-[EtSSEt]AspE-Ala-Ala-Phe-Leu-PyrS2-3Thi-BztA-Gln-NH2]: the IC50 in assay [1] (setting [3]) is 0.633 µM; in assay [2] it was 25.2 µM.

As a reminder, the IC50 is the concentration at which inhibition is half-maximal.

Source of the values: patent US20240116985A1, “STAPLED PEPTIDES AND METHODS THEREOF” (priority 2020, published 2024).
